Laboratory results reported in US20250333683A1, “A METHOD AND SYSTEM FOR SIMULATING STEM CELL DIFFERENTIATION DYNAMICS” (CellVoyant Technologies Limited, priority 2024, published 2025).

Tested on: human pluripotent cells (hPCs)
Assay: Observed ground truth mesoderm differentiation (Brachyury immunofluorescence)
Type: cell-based
Procedure: Stem cell differentiation: To differentiate cells into cardiac mesoderm cells, cardiomyocytes and/or endothelial intermediate, protocol described in Giacomelli et al., [1] was adapted.
Briefly, human pluripotent cells (hPCs) were seeded, as a monolayer culture, into 96-well imaging plate in BPLE basal media for twenty-four hours, with the bovine serum albumin (BSA) polyvinylalcohol essential lipids (BPLE) basal media being supplemented with 20 ng/ml of ActinvinA (Peprotech, 120-14E-2 μG), 20 ng/ml of BMP4 (Peprotech, 120-05ET-2 μG) and varying concentrations of CHIR99201 (Selleckchem, S1263). CHIR99021 was removed randomly after either 24 or 48 hours of differentiation, to determine the effect of CHIR99021 on mesoderm differentiation rates.
The day after, the primary antibody was washed out, and the cells were incubated with the fluorescence-conjugated secondary antibody (1:1000) for 1 hour at room temperature. DAPI solution was used to detect nuclei.
Ground truth for fate forecasting was inferred by using Cellpose to segment individual cell nuclei on the DAPI channel. A Multi-Otsu threshold was carried out on the Brachury channel to separate the images into foreground and background. The total number of nucleii detected was recorded and the two sets of masks were correlated to determine the proportion of cells that were positive for the immunofluorescence marker. […]

Structure (SMILES): Cc1c[nH]c(-c2cnc(NCCNc3ccc(C#N)cn3)nc2-c2ccc(Cl)cc2Cl)n1 [CHIR99021]
- observed ground truth proportion of cells acquiring the mesodermal cell fate (CHIR99021 0.93 μM, applied for 24 hours): very low proportion
- observed ground truth amount of Brachury positive cells after removal of CHIR99021 (CHIR99021 1.93 μM, removed after 48 hours): decrease in the amount of Brachury positive cells
